The test system of experiment [1] is iagA′-lacZ fusion (S. typhi strain Ty267). Kind of experiment: β-galactosidase activity of the iagA′-lacZ fusion in favourable LB medium. The format is cell-based. Particulars: for β-Galactosidase activity of the iagA′-lacZ fusion (Table VII): fatty acid as sodium salt, control 22022 ± 1177; for β-Galactosidase activity of the iagA′-lacZ fusion (Table VII) / inhibition of the expression of the iagA′-lacZ fusion in S. typhi (in words) / β-galactosidase activity of the iagA′-lacZ fusion (Table II): 5 mM in favourable LB medium, 6 hours at 37° C.; for inhibition of the expression of the iagA′-lacZ fusion in S. typhi (in words): sodium salt; for β-galactosidase activity of the iagA′-lacZ fusion (Table II): control 12134 ± 1811. The method, then:
(§1) The favourable LB medium (high osmolarity and concentration of Ca^2+ions) was defined as being the standard LB medium modified so as to have a final NaCl concentration of 300 mM and a final Ca concentration of 5 mM.
Each of the strains described above was cultured at 37° C. on agar or in TCS broth. The P-galactosidase activity was determined using 4-methyl-umbelliferyl-p-D-galactopyranoside sold by the company Sigma, according to the technique of Klarsfeld et al. (Mol. Mibrobiol., 1994, 13, 585-597). The results, expressed in P-galactosidase units (fluorescence per hour and per OD600), represent the mean of the values obtained in at least three independent experiments. The standard deviations were less than 10% of the values presented. […]
The β-galactosidase activity of the iagA′-lacZ fusion was measured after incubation for 6 hours at 37° C. with shaking (200 rpm).
The S. typhi Ty267 strain (iagA′-lacZ fusion) was seeded into favourable LB medium and into favourable LB medium containing the fatty acid to be tested, in the form of its sodium salt, at the final concentration of 5 mM.

In experiment [2] the test system is invF′-lacZ fusion (S. typhi strain Ty272). Kind of experiment: β-galactosidase activity of the invF′-lacZ fusion in favourable LB medium. The format is cell-based. Conditions: LB medium with 300 mM NaCl and 1 mM EGTA (depleted of divalent cations) versus favourable LB medium. The method, then:
as §1
(§2) Each of the strains described above was cultured at 37° C. on agar or in TCS broth. The P-galactosidase activity was determined using 4-methyl-umbelliferyl-p-D-galactopyranoside sold by the company Sigma, according to the technique of Klarsfeld et al. (Mol. Mibrobiol., 1994, 13, 585-597). The results, expressed in P-galactosidase units (fluorescence per hour and per OD600), represent the mean of the values obtained in at least three independent experiments. The standard deviations were less than 10% of the values presented.
(§3) For this, the S. typhi strains Ty267, Ty272 and Ty277, which carry the iagA′-lacZ, invF′-lacZ and sipB′-lacZ fusions, respectively, (see Table I), were cultured in the favourable LB or unfavourable LB medium.
(§4) The action of these two compounds on the expression of the iagA′-lacZ, invF′-lacZ and sipB′-lacZ fusions was studied by measuring the β-galactosidase activity expressed by these fusions as a function of the time of culturing (samples removed every two hours).

In experiment [3] the test system is sipB′-lacZ fusion (S. typhi strain Ty277). Kind of experiment: β-galactosidase activity of the sipB′-lacZ fusion in favourable LB medium. Particulars: LB medium with 300 mM NaCl and 1 mM EGTA (depleted of divalent cations) versus favourable LB medium. The class given is cell-based. The method, then:
as §1, §2, §3, §4

Experiment [4] concerns Gram-positive or Gram-negative microorganisms. Particulars: acid pH (free acid form); cited from earlier work.
Experiment [5] relates to Gram-positive or Gram-negative bacteria. Conditions: in vitro, concentration not given; cited from earlier work.
In experiment [6] the test system is iagA′-lacZcat fusion in S. typhi strain Ty267. In words: "Biotype 100" plate screen for carbon-based substrates that repress the iagA′-lacZcat fusion (β-galactosidase activity). Particulars: "Biotype 100" cupule, amount of substrate not known; favourable LB medium; 36 hours at 37° C.; control cupule without substrate 11 250. The format is cell-based. As to the method:
as §2
A “Biotype 100”® plate sold by the company BioMerieux is composed of 100 microcupules. Each micro-cupule contains a dehydrated carbon-based substrate, with the exception of the first cupule, which is a control without substrate (the amount of dehydrated substrate per cupule is not given by the manufacturer).
In the context of the present example, these plates were used to search for carbon-based compounds which would block the expression of the invasion genes in Salmonella.
For this, the S. typhi strain Ty267, which is a derivative of the parental strain Ty2 carrying the iagA′-lacZcat transcriptional fusion (Table I), was cultured in TCS broth for 18 hours at 37° C. with shaking (200 rpm).
This culture was then diluted 100-fold in favourable LB medium (0.6 ml of culture for 60 ml of favourable LB), and then this suspension was used immediately to seed the 100 cupules of a “Biotype 100”® plate, in a proportion of 450 μl of suspension per cupule.
After incubation for 36 hours in an incubator at 37° C., the activity of the iagA′-lacZcat fusion in the Ty267 strain was determined for the culture of each cupule.
By comparing the value of the P-galactosidase activity measured in a cupule containing a carbon-based substrate with that of the control cupule without substrate, it was possible to investigate whether a substrate had no effect on, activated or repressed the expression of the iagA′-lacZcat fusion.
The S. typhi strain Ty267 (iagA′-lacZ fusion), suspended in the favourable LB medium, was used to seed the “Biotype 100”® plates.
The β-galactosidase activity expressed by the iagA′-lacZ fusion was determined for the culture in each cupule. With respect to the β-galactosidase activity measured in the control cupule without substrate (11 250 β-galactosidase units), no substrate caused an increase in the expression of the iagA′-lacZ fusion.

The test system of another experiment is Salmonellae. In words: Bactericidal or bacteriostatic effect on the Salmonellae at neutral pH. The class given is cell-based, Salmonella.

On to `CCCCCCC(N)C(=O)O` (stereo not shown) [2-Aminocaprylic acid], for which, in experiment [1], the “β-Galactosidase activity of the iagA′-lacZ fusion (Table VII)” value (shortened to “β-Galactosidase activity … (Table VII)”) is 33149 ± 2520 β-galactosidase units and the “inhibition of the expression of the iagA′-lacZ fusion in S. typhi (in words)” value (from here on “inhibition”) was “totally blocks the inhibitory activity”.

For the molecule `CCCCCCC(O)C(=O)O` (stereo not shown) [2-Hydroxycaprylic acid], in experiment [1], the “β-Galactosidase activity … (Table VII)” value is recorded as 225 ± 72 β-galactosidase units and the “inhibition” value is recorded as “does not modify the expression”.

Regarding `NCCCCCCCC(=O)O` [8-Aminocaprylic acid], in experiment [1], the “β-Galactosidase activity … (Table VII)” value is given as 18077 ± 1263 β-galactosidase units and the “inhibition” value is recorded as “totally blocks the inhibitory activity”.

As to `O=C(O)CCCCCCCO` [8-Hydroxycaprylic acid], in experiment [1], the “β-Galactosidase activity … (Table VII)” value is 593 ± 49 β-galactosidase units and the “inhibition” value is “does not modify the expression”.

For `CC(=O)O` [Acetic acid], in experiment [1], the “β-Galactosidase activity … (Table VII)” value is on record as 29265 ± 1692 β-galactosidase units and the “inhibition” value is reported as “do not make it possible to inhibit”.

With `CCCC(=O)O` [Butyric acid], in experiment [1], the “β-Galactosidase activity … (Table VII)” value was 21225 ± 1741 β-galactosidase units and the “inhibition” value was “do not make it possible to inhibit”.

Consider `CCCCCC(=O)O` [Caproic acid], for which, in experiment [1], the “β-Galactosidase activity … (Table VII)” value is recorded as 347 ± 21 β-galactosidase units and the “inhibition” value was “as strongly as sodium caprylate”.

On to `O=C(O)CN(CCOCCOCCN(CC(=O)O)CC(=O)O)CC(=O)O` [EGTA, ethylene glycol bis(β-aminoethyl ether) N,N,N′,N′-tetraacetic acid], for which the “expression of the iagA′-lacZ fusion” value in experiment [1] (LB medium with 300 mM NaCl and 1 mM EGTA (depleted of divalent cations) versus favourable LB medium) is given as “repression”. The “expression of the invF′-lacZ fusion” value in experiment [2] is listed as “repression”. Further, the “expression of the sipB′-lacZ fusion” value in experiment [3] is listed as “repression”.

With `CCCCCCC(=O)O` [Oenanthic acid], in experiment [1], the “β-Galactosidase activity … (Table VII)” value is 525 ± 43 β-galactosidase units and the “inhibition” value was “as strongly as sodium caprylate”.

Consider `CCCCCCCCC(=O)O` [Pelargonic acid], for which, in experiment [1], the “β-Galactosidase activity … (Table VII)” value is 383 ± 54 β-galactosidase units and the “inhibition” value is given as “as strongly as sodium caprylate”.

On to `CCC(=O)O` [Propionic acid], for which, in experiment [1], the “β-Galactosidase activity … (Table VII)” value is given as 14650 ± 1333 β-galactosidase units and the “inhibition” value was “do not make it possible to inhibit”.

For the molecule `CCCCC(=O)O` [Valeric acid], in experiment [1], the “β-Galactosidase activity … (Table VII)” value is given as 509 ± 91 β-galactosidase units and the “inhibition” value is “as strongly as sodium caprylate”.

`CCCCCCCCCC(=O)O` [decanoic acid]: the “bactericidal activity on a great variety of Gram-positive or Gram-negative microorganisms” value in experiment [4] was “bactericidal activity”.

In the case of `CCCCC/C=C\C/C=C\CCCCCCCC(=O)O` [linoleic acid], in experiment [5], the “bacteriostatic or bactericidal effect on Gram-positive or Gram-negative bacteria” value is “very effective”.

For the molecule `CCCCCC(=O)O` [n-hexanoic acid], the “bactericidal activity on a great variety of Gram-positive or Gram-negative microorganisms” value in experiment [4] is recorded as “bactericidal activity”.

Turning to `CCCCCCCC/C=C\CCCCCCCC(=O)O` [oleic acid], the “bacteriostatic or bactericidal effect on Gram-positive or Gram-negative bacteria” value in experiment [5] is reported as “very effective”.

With `O=C([O-])CCc1ccccc1.[Na+]` [sodium 3-phenylpropionate], the “β-galactosidase activity expressed by the iagA′-lacZ fusion in the cupule” value in experiment [6] is given as 166 β-galactosidase units. In addition, in experiment [1], the “β-galactosidase activity of the iagA′-lacZ fusion (Table II)” value (from here on “β-galactosidase activity … (Table II)”) is reported as 297 ± 95 β-galactosidase units and the “inhibition” value is reported as “inhibit”. Besides, the “bactericidal or bacteriostatic effect on the Salmonellae” value (“bactericidal or bacteriostatic effect” below) in the experiment on Salmonellae is listed as “none of these compounds has any significant bactericidal or bacteriostatic effect”.

On to `O=C([O-])CCCc1ccccc1.[Na+]` [sodium 4-phenylbutyrate], for which, in experiment [1], the “β-galactosidase activity … (Table II)” value is on record as 198 ± 32 β-galactosidase units and the “inhibition” value is on record as “inhibited”. For the same molecule, the “bactericidal or bacteriostatic effect” value with Salmonellae is reported as “none of these compounds has any significant bactericidal or bacteriostatic effect”.

Take `O=C([O-])Cc1ccccc1.[Na+]` [sodium phenylacetate]: the “β-galactosidase activity expressed by the iagA′-lacZ fusion in the cupule” value in experiment [6] was 81 β-galactosidase units. For the same molecule, in experiment [1], the “β-galactosidase activity … (Table II)” value is recorded as 149 ± 24 β-galactosidase units and the “inhibition” value is reported as “inhibit”. For the same molecule, in the experiment with Salmonellae, the “bactericidal or bacteriostatic effect” value was “none of these compounds has any significant bactericidal or bacteriostatic effect”.

These data come from US20040116523A1, “Use of c4-c10 acids for preventing gram-negative bacterial infections” (priority 2000, published 2004).
